Test results taken from BigSolDB 2.1.

Conditions: in n-octanol

Structure (SMILES)	solubility (mole fraction) (303.15 K)	solubility (mole fraction) (308.15 K)	solubility (mole fraction) (313.15 K)	solubility (mole fraction) (323.15 K)	solubility (mole fraction) (328.15 K)	solubility (mole fraction) (333.15 K)	solubility (mole fraction) (298.15 K)	solubility (mole fraction) (318.15 K)
COc1cc(NS(=O)(=O)c2ccc(N)cc2)ncn1	8.68e-05	9.52e-05	0.000104	0.00012	0.000129	0.000136	–	–
COc1cnc(NS(=O)(=O)c2ccc(N)cc2)nc1	9.42e-05	0.000101	0.000108	0.000123	0.000132	0.000141	8.8e-05	0.000115
COc1cc(NS(=O)(=O)c2ccc(N)cc2)nc(OC)n1	0.00018	0.000194	0.000213	0.000261	0.000294	0.000332	0.000167	0.000235
